Like-named read-outs stand apart in the source and are kept apart here.

The test system of series [1] is fish (Danio rerio) embryos. The series is described as follows: In vivo ecotoxicity screening test on fish (Danio rerio). The following applies: active compound alone; fish embryos, 96 h, 28.5° C. The procedure, abridged:
(§1)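 Zebrafish mortality recorded after 96 h across five increasing concentrations between 0.01 and 1000 ppm a.i., with at most 0.5% DMSO. Mixtures tested at A:B weight ratios of 5:1 to 1:5; measured ECx compared with predicted value as the Model Deviation Ratio.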

Another series deals with Puccinia triticina. The experiment in a line: In vivo preventive Puccinia triticina test (wheat). The following applies: Puccinia triticina, 192 h, 8 days after inoculation, read-out: Efficacy in % found; for pest or weed control at 20 ppm: 20 ppm a.i.; for pest or weed control at 40 ppm: 40 ppm a.i.; for pest or weed control at 80 ppm: 80 ppm a.i. Here is the method:
After the spray coating has been dried, the plants are sprayed with a spore suspension of Puccinia triticina.
(§2) The test is evaluated 8 days after the inoculation.

Another series concerns Septoria tritici. The experiment in a line: In vivo preventive Septoria tritici test (wheat). The following applies: 21 days after inoculation; for pest or weed control at 40 ppm: 40 ppm a.i. Here is the method: After the spray coating has been dried, the plants are sprayed with a spore suspension of Septoria tritici.
The test is evaluated 21 days after the inoculation.

A further series relates to Rhizoctonia solani. The experiment in a line: In vitro-Test with Rhizoctonia solani. It counts as cell-based.
The next series deals with Sphaerotheca fuliginea. The experiment in a line: In vivo preventive test on Sphaerotheca (cucumbers). The following applies: Table D1, 7 days after inoculation.
The test system of a further series is Fusarium culmorum. The experiment in a line: In vitro-Test with Fusarium culmorum. Format: cell-based.
The nature of series [2]: In vivo ecotoxicity screening test on fish (Danio rerio). As to conditions: Danio rerio, in vivo, other: exposure of embryos to the aqueous preparation. The procedure, abridged:
as §1

The test system of a further series is Venturia inaequalis. The series is described as follows: In vivo preventive test on Venturia (apples). The following applies: Table E2, 10 days after inoculation. Here is the method:
The test is evaluated 10 days after the inoculation.

In another series the test system is Leptosphaeria nodorum. The series is described as follows: In vivo preventive Leptosphaeria nodorum test (wheat). As to conditions: Table G1, 8 days after inoculation. Here is the method:
After the spray coating has been dried, the plants are sprayed with a spore suspension of Leptosphaeria nodorum.
as §2

A further series relates to Pyrenophora teres. The series is described as follows: In vitro-Test with Pyrenophora teres. Format: cell-based.
The next series concerns Phakopsora pachyrhizi. The experiment in a line: In vivo preventive test on Phakopsora (soybeans). As to conditions: Table C3, 7 days after inoculation.
Setting [3] is: Zymoseptoria tritici, 504 h, read-out: Efficacy in % found.

As for `CC(C)C1CCC(Cc2ccc(Cl)cc2)C1(O)Cn1cncn1` (centres unmarked) [Example 1.012, ipconazole], the “Ecotoxicity LC50-96 h found” value in series [1] was 6.57 ppm a.i. For the same compound, the pest or weed control at 20 ppm was 0% with Puccinia triticina; 0% with Puccinia triticina (Table H1); 0% in the series on Septoria tritici (Zymoseptoria tritici, 504 h, 20 ppm a.i., read-out: Efficacy in % found). Besides, the pest or weed control at 40 ppm amounted to 44% with Puccinia triticina, 67% in the series on Puccinia triticina (Table H1) and 0% in the series on Septoria tritici (setting [3]). For the same compound, the pest or weed control at 80 ppm is 100% with Puccinia triticina; 89% with Puccinia triticina (Table H1); 0% in the series with Septoria tritici (Zymoseptoria tritici, 504 h, 80 ppm a.i., read-out: Efficacy in % found). Also, the Efficacy % with Rhizoctonia solani (0.04 ppm) came to 35%; with Rhizoctonia solani (0.2 ppm), 96%; in the series with Fusarium culmorum (0.04 ppm) it was 7%; with Fusarium culmorum (0.2 ppm), 13%; in the series on Fusarium culmorum (1 ppm) it was 96%; in the series on Fusarium culmorum (5 ppm), 99%. For the same compound, the figures for the “Efficacy in % found” value with Sphaerotheca fuliginea (2.5 ppm a.i.), in the series on Sphaerotheca fuliginea (5 ppm a.i.) and in the series on Sphaerotheca fuliginea (10 ppm a.i.) were 26%, 87% and 100%, respectively.

As for `CC(O)(Cn1cncn1)c1ccc(Oc2ccc(Cl)cc2)nc1C(F)(F)F` (centres unmarked) [I.01, 2-[6-(4-chlorophenoxy)-2-(trifluoromethyl)pyridin-3-yl]-1-(1H-1,2,4-triazol-1-yl)propan-2-ol], in series [2], the LC50 at 96 h worked out at 6.21 µg/mL. Besides, in the series on Puccinia triticina, the pest or weed control at 20 ppm turned out to be 30%, the pest or weed control at 40 ppm was determined as 50% and the pest or weed control at 80 ppm was found to be 60%. For the same compound, in the series on Septoria tritici (setting [3]), the pest or weed control at 40 ppm was 63%.

`CC(O)(Cn1cncn1)c1ccc(Oc2ccc(Br)cc2)nc1C(F)(F)F` (centres unmarked) [I.59, 2-[6-(4-bromophenoxy)-2-(trifluoromethyl)pyridin-3-yl]-1-(1H-1,2,4-triazol-1-yl)propan-2-ol]: in series [2], the median lethal concentration (LC50) at 96 h stood at 6 µg/mL.

On to mancozeb [Example 5.013], for which the “Efficacy in % found” value in the series on Septoria tritici (250 ppm a.i.) is 29%; with Septoria tritici (500 ppm a.i.), 29%; in the series on Septoria tritici (1000 ppm a.i.), 29%; with Venturia inaequalis (12.5 ppm a.i.), 0%; with Venturia inaequalis (25 ppm a.i.), 18%; in the series with Venturia inaequalis (50 ppm a.i.), 95%. In addition, the “Efficacy in % found” value in the series with Leptosphaeria nodorum (250 ppm a.i.) turned out to be 14%; in the series on Leptosphaeria nodorum (500 ppm a.i.) it was 14%; with Leptosphaeria nodorum (1000 ppm a.i.), 14%; with Phakopsora pachyrhizi (12.5 ppm a.i.), 23%; in the series with Phakopsora pachyrhizi (25 ppm a.i.) it was 45%; in the series on Phakopsora pachyrhizi (50 ppm a.i.), 90%. In addition, the Efficacy % with Rhizoctonia solani (4 ppm, compound alone) was found to be 57%; with Rhizoctonia solani (20 ppm, compound alone) it was 99%; with Pyrenophora teres (20 ppm) it was 81%; in the series with Pyrenophora teres (100 ppm), 83%.

For the origin of these results see patent US20200008426A1, “ACTIVE COMPOUND COMBINATIONS” (BAYER AKTIENGESELLSCHAFT, priority 2017, published 2020).
